For orientation: viability, T/C means the ratio of treated to control.

The values below come from PubChem BioAssay AID1963837 (Molecular Pharmacology Branch, DTP, NCI, 2024).
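Further: spheroids exposed to drugs for seven days before readout.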

The first experiment relates to 843126-344-R-J1-PDC complex spheroid viability. As to the kind of experiment: Anticancer human tumor 843126-344-R-J1-PDC patient-derived melanoma cell line growth inhibition [POLQ]. The following applies: second compound 0.316 µM; first compound 1 µM; active compounds read low. The essentials: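 Three-cell-type spheroids modelling solid tumor plus stroma served as the readout system; POL inhibitors were tested individually and in combination, concentration ranges set by clinical Cmax where known.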
In the case of `C=CC(=O)N1CCN(c2nc(=O)n(-c3c(C)ccnc3C(C)C)c3nc(-c4c(O)cccc4F)c(F)cc23)C(C)C1` (stereo unspecified) + Nc1ccc(C#CCN(C(=O)Cc2ncc(C(F)(F)F)cc2C(F)(F)F)c2ccc(F)cc2)nn1, the viability, T/C was 113%.
The same measure, in the same setting: with `CC(C)n1c(=O)n(C)c2cnc3cc(F)c(-c4ccc(OCCCN5CCCCC5)nc4)cc3c21` + Nc1ccc(C#CCN(C(=O)Cc2ncc(C(F)(F)F)cc2C(F)(F)F)c2ccc(F)cc2)nn1 the figure was 85.7%; with `CC1COCCN1c1cc(-c2ccnn2C)c2ccnc(-c3ccn[nH]3)c2n1` (stereo unspecified) + Nc1ccc(C#CCN(C(=O)Cc2ncc(C(F)(F)F)cc2C(F)(F)F)c2ccc(F)cc2)nn1, 46.6%; with `CCc1cc2c(N3CCc4c(cc(Cn5ccnc5)cc4-c4cn(C)nc4C(F)(F)F)C3=O)ccnc2c(OC)n1` + Nc1ccc(C#CCN(C(=O)Cc2ncc(C(F)(F)F)cc2C(F)(F)F)c2ccc(F)cc2)nn1, 82.3%.
For the compound `COc1ccc([C@@H](O)c2cc(-c3ncnc4cc(N5CCOCC5)ccc34)c(F)cc2Cl)nn1` + Nc1ccc(C#CCN(C(=O)Cc2ncc(C(F)(F)F)cc2C(F)(F)F)c2ccc(F)cc2)nn1, the viability, T/C is 85.1%.

Staying with this experiment, now noted: second compound 0.316 µM; first compound 3.16 µM; active compounds read low.
For the compound `C=CC(=O)N1CCN(c2nc(=O)n(-c3c(C)ccnc3C(C)C)c3nc(-c4c(O)cccc4F)c(F)cc23)C(C)C1` (stereo unspecified) + Nc1ccc(C#CCN(C(=O)Cc2ncc(C(F)(F)F)cc2C(F)(F)F)c2ccc(F)cc2)nn1, the viability, T/C is 94.5%.
The same measure, in the same setting: with `CC(C)n1c(=O)n(C)c2cnc3cc(F)c(-c4ccc(OCCCN5CCCCC5)nc4)cc3c21` + Nc1ccc(C#CCN(C(=O)Cc2ncc(C(F)(F)F)cc2C(F)(F)F)c2ccc(F)cc2)nn1 the figure was 89.2%.
Still for that read-out and setting: the same measure for `CC1COCCN1c1cc(-c2ccnn2C)c2ccnc(-c3ccn[nH]3)c2n1` (stereo unspecified) + Nc1ccc(C#CCN(C(=O)Cc2ncc(C(F)(F)F)cc2C(F)(F)F)c2ccc(F)cc2)nn1: 40.6%; for `CCc1cc2c(N3CCc4c(cc(Cn5ccnc5)cc4-c4cn(C)nc4C(F)(F)F)C3=O)ccnc2c(OC)n1` + Nc1ccc(C#CCN(C(=O)Cc2ncc(C(F)(F)F)cc2C(F)(F)F)c2ccc(F)cc2)nn1: 72.9%; for `COc1ccc([C@@H](O)c2cc(-c3ncnc4cc(N5CCOCC5)ccc34)c(F)cc2Cl)nn1` + Nc1ccc(C#CCN(C(=O)Cc2ncc(C(F)(F)F)cc2C(F)(F)F)c2ccc(F)cc2)nn1: 79.5%.

Still in this experiment, the particulars now being: second compound 0.316 µM; first compound 10 µM; active compounds read low.
As for `C=CC(=O)N1CCN(c2nc(=O)n(-c3c(C)ccnc3C(C)C)c3nc(-c4c(O)cccc4F)c(F)cc23)C(C)C1` (stereo unspecified) + Nc1ccc(C#CCN(C(=O)Cc2ncc(C(F)(F)F)cc2C(F)(F)F)c2ccc(F)cc2)nn1, the viability, T/C is 85.1%.
As for `CC(C)n1c(=O)n(C)c2cnc3cc(F)c(-c4ccc(OCCCN5CCCCC5)nc4)cc3c21` + Nc1ccc(C#CCN(C(=O)Cc2ncc(C(F)(F)F)cc2C(F)(F)F)c2ccc(F)cc2)nn1, the viability, T/C is 71.6%.
Same read-out and setting: with `CC1COCCN1c1cc(-c2ccnn2C)c2ccnc(-c3ccn[nH]3)c2n1` (stereo unspecified) + Nc1ccc(C#CCN(C(=O)Cc2ncc(C(F)(F)F)cc2C(F)(F)F)c2ccc(F)cc2)nn1 the figure was 30.2%.
Turning to `CCc1cc2c(N3CCc4c(cc(Cn5ccnc5)cc4-c4cn(C)nc4C(F)(F)F)C3=O)ccnc2c(OC)n1` + Nc1ccc(C#CCN(C(=O)Cc2ncc(C(F)(F)F)cc2C(F)(F)F)c2ccc(F)cc2)nn1, the viability, T/C was 61.5%.
`COc1ccc([C@@H](O)c2cc(-c3ncnc4cc(N5CCOCC5)ccc34)c(F)cc2Cl)nn1` + Nc1ccc(C#CCN(C(=O)Cc2ncc(C(F)(F)F)cc2C(F)(F)F)c2ccc(F)cc2)nn1: the viability, T/C was 80.7%.

The same experiment, now with this note: second compound 1 µM; first compound 0.0316 µM; active compounds read low.
In the case of `C=CC(=O)N1CCN(c2nc(=O)n(-c3c(C)ccnc3C(C)C)c3nc(-c4c(O)cccc4F)c(F)cc23)C(C)C1` (stereo unspecified) + Nc1ccc(C#CCN(C(=O)Cc2ncc(C(F)(F)F)cc2C(F)(F)F)c2ccc(F)cc2)nn1, the viability, T/C is 101%.
For `CC(C)n1c(=O)n(C)c2cnc3cc(F)c(-c4ccc(OCCCN5CCCCC5)nc4)cc3c21` + Nc1ccc(C#CCN(C(=O)Cc2ncc(C(F)(F)F)cc2C(F)(F)F)c2ccc(F)cc2)nn1, the viability, T/C was 89.3%.
`CC1COCCN1c1cc(-c2ccnn2C)c2ccnc(-c3ccn[nH]3)c2n1` (stereo unspecified) + Nc1ccc(C#CCN(C(=O)Cc2ncc(C(F)(F)F)cc2C(F)(F)F)c2ccc(F)cc2)nn1: the viability, T/C was 84.6%.
Take `CCc1cc2c(N3CCc4c(cc(Cn5ccnc5)cc4-c4cn(C)nc4C(F)(F)F)C3=O)ccnc2c(OC)n1` + Nc1ccc(C#CCN(C(=O)Cc2ncc(C(F)(F)F)cc2C(F)(F)F)c2ccc(F)cc2)nn1: the viability, T/C is 96.6%.
As to `COc1ccc([C@@H](O)c2cc(-c3ncnc4cc(N5CCOCC5)ccc34)c(F)cc2Cl)nn1` + Nc1ccc(C#CCN(C(=O)Cc2ncc(C(F)(F)F)cc2C(F)(F)F)c2ccc(F)cc2)nn1, the viability, T/C was 88.1%.

Staying with this experiment, now noted: second compound 1 µM; first compound 0.1 µM; active compounds read low.
Regarding `C=CC(=O)N1CCN(c2nc(=O)n(-c3c(C)ccnc3C(C)C)c3nc(-c4c(O)cccc4F)c(F)cc23)C(C)C1` (stereo unspecified) + Nc1ccc(C#CCN(C(=O)Cc2ncc(C(F)(F)F)cc2C(F)(F)F)c2ccc(F)cc2)nn1, the viability, T/C is 104%.
As to `CC(C)n1c(=O)n(C)c2cnc3cc(F)c(-c4ccc(OCCCN5CCCCC5)nc4)cc3c21` + Nc1ccc(C#CCN(C(=O)Cc2ncc(C(F)(F)F)cc2C(F)(F)F)c2ccc(F)cc2)nn1, the viability, T/C was 85.7%.
Turning to `CC1COCCN1c1cc(-c2ccnn2C)c2ccnc(-c3ccn[nH]3)c2n1` (stereo unspecified) + Nc1ccc(C#CCN(C(=O)Cc2ncc(C(F)(F)F)cc2C(F)(F)F)c2ccc(F)cc2)nn1, the viability, T/C was 65.8%.
With `CCc1cc2c(N3CCc4c(cc(Cn5ccnc5)cc4-c4cn(C)nc4C(F)(F)F)C3=O)ccnc2c(OC)n1` + Nc1ccc(C#CCN(C(=O)Cc2ncc(C(F)(F)F)cc2C(F)(F)F)c2ccc(F)cc2)nn1, the viability, T/C is 99.3%.
As for `COc1ccc([C@@H](O)c2cc(-c3ncnc4cc(N5CCOCC5)ccc34)c(F)cc2Cl)nn1` + Nc1ccc(C#CCN(C(=O)Cc2ncc(C(F)(F)F)cc2C(F)(F)F)c2ccc(F)cc2)nn1, the viability, T/C was 102%.

The experiment is the same for the next values; noted with them: second compound 1 µM; first compound 0.316 µM; active compounds read low.
In the case of `C=CC(=O)N1CCN(c2nc(=O)n(-c3c(C)ccnc3C(C)C)c3nc(-c4c(O)cccc4F)c(F)cc23)C(C)C1` (stereo unspecified) + Nc1ccc(C#CCN(C(=O)Cc2ncc(C(F)(F)F)cc2C(F)(F)F)c2ccc(F)cc2)nn1, the viability, T/C was 107%.
